Assay results taken from PMC10415136, “Reverse transcriptases prime DNA synthesis” (Nucleic Acids Research, 2023).

Tests used:
[1] = biological target: T1, LlLtrA RT domain (Lactococcus cremoris, UniProt P0A3U0); assay: gel-based primase assay; assay type: biochemical; settings: RNA template (oMZ27), gamma-phosphate FAM-labelled GTP, Mn2+
T1 construct: gene ltrA; RT domain aa 1-472, endonuclease domain removed; recombinant from E. coli; catalytic D308, D309
T1 sequence (P0A3U0 1-472): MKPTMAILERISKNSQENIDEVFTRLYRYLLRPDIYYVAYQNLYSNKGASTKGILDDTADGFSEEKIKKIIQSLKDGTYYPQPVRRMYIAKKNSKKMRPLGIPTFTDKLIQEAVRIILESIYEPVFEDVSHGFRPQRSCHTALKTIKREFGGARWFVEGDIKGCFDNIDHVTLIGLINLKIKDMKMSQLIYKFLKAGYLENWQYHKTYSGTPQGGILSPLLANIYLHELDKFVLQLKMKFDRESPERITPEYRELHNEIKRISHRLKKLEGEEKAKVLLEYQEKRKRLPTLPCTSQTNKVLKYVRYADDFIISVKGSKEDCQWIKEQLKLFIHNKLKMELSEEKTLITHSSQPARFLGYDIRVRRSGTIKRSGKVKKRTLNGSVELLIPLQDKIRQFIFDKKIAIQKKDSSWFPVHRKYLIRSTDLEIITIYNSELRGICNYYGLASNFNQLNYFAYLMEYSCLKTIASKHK

[2] = biological target: T2, ScTy3 RT (Saccharomyces cerevisiae, UniProt Q99315); assay: gel-based primase assay; assay type: biochemical; settings: DNA or RNA template, gamma-phosphate FAM-labelled GTP, Mn2+
T2 construct: gene TY3B-G; RT domain aa 1-339 of the mature RT from Ty3 Gag-Pol polyprotein, C-terminal MBP fusion; recombinant from E. coli
T2 sequence (Q99315 536-874): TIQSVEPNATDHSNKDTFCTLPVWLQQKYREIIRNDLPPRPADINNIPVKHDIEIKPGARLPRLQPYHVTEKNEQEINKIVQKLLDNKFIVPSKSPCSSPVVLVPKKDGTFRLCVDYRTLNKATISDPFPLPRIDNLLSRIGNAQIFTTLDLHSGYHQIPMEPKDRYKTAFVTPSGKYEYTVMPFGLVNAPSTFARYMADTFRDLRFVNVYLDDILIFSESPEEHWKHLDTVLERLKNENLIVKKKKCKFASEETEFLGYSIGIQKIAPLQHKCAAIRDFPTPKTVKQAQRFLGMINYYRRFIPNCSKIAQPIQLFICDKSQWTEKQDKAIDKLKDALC

gel-based primase assay [1]: LlLtrA RT is an RNA-dependent primase
SMILES: Nc1nc2c(ncn2[C@H]2C[C@H](O)[C@@H](COP(=O)(O)OP(=O)(O)OP(=O)(O)O)O2)c(=O)[nH]1 [dGTP]
gel-based primase assay [2]: ScTy3 RT is efficient DNA and RNA-dependent primase
